Data taken from article doi:10.1101/2021.04.08.439011v1 (biorxiv, 2021).
Read-outs that look alike come from different tables or passages of the source.

Experiments:
[1] = molecular target: MAP3K14 (Homo sapiens, UniProt Q99558); conditions: 1 µM; binder
[2] = molecular target: HIPK1 (Homo sapiens, UniProt Q86Z02); conditions: 1 µM; binder
[3] = molecular target: RPS6KA6 (Homo sapiens, UniProt Q9UK32); conditions: binder
[4] = molecular target: FGFR4 (Homo sapiens, UniProt P22455); conditions: 1 µM; binder
[5] = molecular target: SBK1 (Homo sapiens, UniProt Q52WX2); conditions: 1 µM; binder
Sequence of SBK1 (Q52WX2 whole entry): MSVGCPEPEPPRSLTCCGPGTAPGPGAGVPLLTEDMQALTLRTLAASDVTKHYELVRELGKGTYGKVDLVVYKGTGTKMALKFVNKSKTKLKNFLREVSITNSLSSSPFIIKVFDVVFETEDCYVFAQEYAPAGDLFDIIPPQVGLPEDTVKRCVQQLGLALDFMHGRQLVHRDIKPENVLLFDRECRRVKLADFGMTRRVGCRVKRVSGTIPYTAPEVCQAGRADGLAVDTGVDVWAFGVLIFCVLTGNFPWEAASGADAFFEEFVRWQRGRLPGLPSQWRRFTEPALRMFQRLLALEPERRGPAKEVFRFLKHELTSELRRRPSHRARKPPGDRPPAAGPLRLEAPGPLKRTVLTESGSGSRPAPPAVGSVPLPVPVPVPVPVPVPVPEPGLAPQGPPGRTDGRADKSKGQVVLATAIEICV

[6] = molecular target: KIT(V559D) (Homo sapiens, UniProt P10721, V559D); conditions: 1 µM; binder
Sequence of KIT(V559D) (P10721 whole entry V559D): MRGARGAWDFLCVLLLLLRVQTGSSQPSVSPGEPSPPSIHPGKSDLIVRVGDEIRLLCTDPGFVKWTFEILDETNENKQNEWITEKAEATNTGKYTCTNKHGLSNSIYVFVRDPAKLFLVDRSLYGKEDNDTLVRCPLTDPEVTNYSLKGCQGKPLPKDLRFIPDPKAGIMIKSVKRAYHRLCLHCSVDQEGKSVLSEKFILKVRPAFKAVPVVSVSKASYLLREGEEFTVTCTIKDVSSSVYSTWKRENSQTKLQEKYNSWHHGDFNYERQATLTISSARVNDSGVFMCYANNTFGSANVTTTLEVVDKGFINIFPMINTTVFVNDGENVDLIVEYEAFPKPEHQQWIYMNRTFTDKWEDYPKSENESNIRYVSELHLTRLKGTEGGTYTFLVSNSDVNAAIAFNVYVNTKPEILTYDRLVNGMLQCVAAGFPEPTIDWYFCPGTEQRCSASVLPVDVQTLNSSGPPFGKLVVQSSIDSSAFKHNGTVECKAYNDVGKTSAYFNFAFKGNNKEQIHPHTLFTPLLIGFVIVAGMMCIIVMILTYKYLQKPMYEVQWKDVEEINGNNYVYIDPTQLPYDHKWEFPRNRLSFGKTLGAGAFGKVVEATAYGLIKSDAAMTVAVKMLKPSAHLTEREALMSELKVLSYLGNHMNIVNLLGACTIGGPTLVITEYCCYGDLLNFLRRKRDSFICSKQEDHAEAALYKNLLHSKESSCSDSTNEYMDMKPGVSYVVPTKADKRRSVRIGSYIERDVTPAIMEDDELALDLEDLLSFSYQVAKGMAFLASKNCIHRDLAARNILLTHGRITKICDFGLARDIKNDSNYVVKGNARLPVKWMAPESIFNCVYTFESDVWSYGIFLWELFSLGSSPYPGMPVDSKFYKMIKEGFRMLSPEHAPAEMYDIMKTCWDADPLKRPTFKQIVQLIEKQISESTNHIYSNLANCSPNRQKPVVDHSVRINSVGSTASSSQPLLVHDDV

[7] = molecular target: PAK1 (Homo sapiens, UniProt Q13153); conditions: 1 µM; binder
[8] = molecular target: TNK2 (Homo sapiens, UniProt Q07912); conditions: 1 µM; binder
[9] = molecular target: EPHA3 (Homo sapiens, UniProt P29320); conditions: 1 µM; binder
[10] = molecular target: CAMK2B (Homo sapiens, UniProt Q13554); conditions: 1 µM; binder
[11] = molecular target: MAK (Homo sapiens, UniProt P20794); conditions: 1 µM; binder
[12] = molecular target: FLT3(K663Q) (Homo sapiens, UniProt P36888, K663Q); conditions: 1 µM; binder
[13] = molecular target: GRK2 (Homo sapiens, UniProt P25098); conditions: 1 µM; binder
[14] = molecular target: PRP4 (Homo sapiens, UniProt Q13523); conditions: 1 µM; binder
[15] = molecular target: CSF1R (Homo sapiens, UniProt P07333); conditions: 1 µM; binder
Sequence of CSF1R (P07333 whole entry): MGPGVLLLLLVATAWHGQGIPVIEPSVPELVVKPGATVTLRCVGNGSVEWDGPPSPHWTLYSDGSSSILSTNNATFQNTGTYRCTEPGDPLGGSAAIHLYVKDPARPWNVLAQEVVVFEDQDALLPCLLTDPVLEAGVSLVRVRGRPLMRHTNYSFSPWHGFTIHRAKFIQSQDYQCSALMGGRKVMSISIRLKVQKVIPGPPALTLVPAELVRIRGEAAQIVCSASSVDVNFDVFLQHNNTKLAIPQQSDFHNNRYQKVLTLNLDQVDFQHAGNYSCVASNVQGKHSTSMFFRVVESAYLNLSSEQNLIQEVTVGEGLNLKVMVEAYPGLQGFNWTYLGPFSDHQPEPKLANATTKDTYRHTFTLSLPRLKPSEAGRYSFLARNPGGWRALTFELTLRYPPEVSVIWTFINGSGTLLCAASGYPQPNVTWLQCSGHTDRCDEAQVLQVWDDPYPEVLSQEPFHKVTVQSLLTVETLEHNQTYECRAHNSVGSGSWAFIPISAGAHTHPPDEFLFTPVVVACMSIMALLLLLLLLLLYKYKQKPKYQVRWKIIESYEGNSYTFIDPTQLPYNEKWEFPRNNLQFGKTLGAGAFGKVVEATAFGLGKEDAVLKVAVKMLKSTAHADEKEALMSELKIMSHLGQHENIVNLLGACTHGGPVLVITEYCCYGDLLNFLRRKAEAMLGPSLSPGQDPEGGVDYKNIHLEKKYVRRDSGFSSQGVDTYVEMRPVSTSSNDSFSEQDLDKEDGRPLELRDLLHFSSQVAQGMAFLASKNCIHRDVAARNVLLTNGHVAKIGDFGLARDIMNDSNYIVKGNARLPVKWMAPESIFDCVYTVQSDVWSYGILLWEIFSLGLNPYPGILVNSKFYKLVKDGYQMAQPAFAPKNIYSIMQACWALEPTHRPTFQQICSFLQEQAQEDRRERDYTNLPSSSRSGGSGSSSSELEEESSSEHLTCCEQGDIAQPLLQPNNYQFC

[16] = molecular target: PFTK1 (Homo sapiens, UniProt O94921); conditions: 1 µM; binder
[17] = molecular target: ERK3 (Homo sapiens, UniProt Q16659); conditions: 1 µM; binder
[18] = molecular target: FRK (Homo sapiens, UniProt P42685); conditions: 1 µM; binder
[19] = molecular target: WEE1 (Homo sapiens, UniProt P30291); conditions: 1 µM; binder
[20] = molecular target: TRKC (Homo sapiens, UniProt Q16288); conditions: 1 µM; binder
[21] = molecular target: AURKC (Homo sapiens, UniProt Q9UQB9); conditions: 1 µM; binder
[22] = molecular target: CSF1R-autoinhibited (Homo sapiens, UniProt P07333); conditions: 1 µM; binder
Sequence of CSF1R-autoinhibited (P07333 whole entry): as above

[23] = molecular target: GRK4 (Homo sapiens, UniProt P32298); conditions: 1 µM; binder
[24] = molecular target: MET(Y1235D) (Homo sapiens, UniProt P08581, Y1235D); conditions: 1 µM; binder
[25] = molecular target: SRPK1 (Homo sapiens, UniProt Q96SB4); conditions: 1 µM; binder
[26] = molecular target: MAPKAPK5 (Homo sapiens, UniProt Q8IW41); conditions: 1 µM; binder
[27] = molecular target: RIOK3 (Homo sapiens, UniProt O14730); conditions: 1 µM; binder
Sequence of RIOK3 (O14730 whole entry): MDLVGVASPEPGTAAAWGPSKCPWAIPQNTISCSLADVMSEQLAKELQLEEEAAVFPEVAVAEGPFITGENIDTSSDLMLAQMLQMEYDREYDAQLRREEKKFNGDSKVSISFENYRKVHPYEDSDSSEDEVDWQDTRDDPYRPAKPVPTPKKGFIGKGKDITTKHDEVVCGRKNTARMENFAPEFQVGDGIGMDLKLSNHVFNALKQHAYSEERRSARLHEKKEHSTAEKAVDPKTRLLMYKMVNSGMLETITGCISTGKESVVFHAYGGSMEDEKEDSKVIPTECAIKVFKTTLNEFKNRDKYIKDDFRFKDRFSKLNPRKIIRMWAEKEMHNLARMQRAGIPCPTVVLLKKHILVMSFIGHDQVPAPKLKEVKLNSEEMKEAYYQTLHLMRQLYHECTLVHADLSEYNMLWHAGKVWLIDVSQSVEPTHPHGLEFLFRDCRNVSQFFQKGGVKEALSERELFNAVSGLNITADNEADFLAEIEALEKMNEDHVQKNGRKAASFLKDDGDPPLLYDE

[28] = molecular target: PRKR (Homo sapiens, UniProt P19525); conditions: 1 µM; binder
[29] = molecular target: MEK4 (Homo sapiens, UniProt P45985); conditions: 1 µM; binder
[30] = molecular target: PCTK2 (Homo sapiens, UniProt Q00537); conditions: 1 µM; binder

Sequence of RPS6KA6 (Q9UK32 whole entry): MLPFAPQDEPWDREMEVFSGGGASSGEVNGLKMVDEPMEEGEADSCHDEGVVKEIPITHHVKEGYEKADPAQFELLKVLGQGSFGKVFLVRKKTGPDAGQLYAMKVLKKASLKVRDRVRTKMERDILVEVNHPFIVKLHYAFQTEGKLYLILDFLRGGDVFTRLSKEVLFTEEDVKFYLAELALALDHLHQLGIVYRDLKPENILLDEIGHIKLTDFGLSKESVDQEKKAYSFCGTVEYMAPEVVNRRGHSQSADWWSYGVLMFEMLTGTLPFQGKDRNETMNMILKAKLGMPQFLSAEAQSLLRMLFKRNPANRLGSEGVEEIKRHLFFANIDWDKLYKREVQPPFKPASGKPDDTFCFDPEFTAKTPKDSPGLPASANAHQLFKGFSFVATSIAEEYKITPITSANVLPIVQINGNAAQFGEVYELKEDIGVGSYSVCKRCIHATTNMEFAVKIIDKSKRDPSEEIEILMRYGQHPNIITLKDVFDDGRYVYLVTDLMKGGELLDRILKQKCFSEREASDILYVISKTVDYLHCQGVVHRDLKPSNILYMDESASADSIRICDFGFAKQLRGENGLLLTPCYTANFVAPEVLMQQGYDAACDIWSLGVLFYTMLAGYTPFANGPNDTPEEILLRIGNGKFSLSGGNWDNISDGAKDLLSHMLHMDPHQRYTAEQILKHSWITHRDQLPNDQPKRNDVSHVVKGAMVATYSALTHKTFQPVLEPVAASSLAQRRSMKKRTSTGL
Sequence of HIPK1 (Q86Z02 whole entry): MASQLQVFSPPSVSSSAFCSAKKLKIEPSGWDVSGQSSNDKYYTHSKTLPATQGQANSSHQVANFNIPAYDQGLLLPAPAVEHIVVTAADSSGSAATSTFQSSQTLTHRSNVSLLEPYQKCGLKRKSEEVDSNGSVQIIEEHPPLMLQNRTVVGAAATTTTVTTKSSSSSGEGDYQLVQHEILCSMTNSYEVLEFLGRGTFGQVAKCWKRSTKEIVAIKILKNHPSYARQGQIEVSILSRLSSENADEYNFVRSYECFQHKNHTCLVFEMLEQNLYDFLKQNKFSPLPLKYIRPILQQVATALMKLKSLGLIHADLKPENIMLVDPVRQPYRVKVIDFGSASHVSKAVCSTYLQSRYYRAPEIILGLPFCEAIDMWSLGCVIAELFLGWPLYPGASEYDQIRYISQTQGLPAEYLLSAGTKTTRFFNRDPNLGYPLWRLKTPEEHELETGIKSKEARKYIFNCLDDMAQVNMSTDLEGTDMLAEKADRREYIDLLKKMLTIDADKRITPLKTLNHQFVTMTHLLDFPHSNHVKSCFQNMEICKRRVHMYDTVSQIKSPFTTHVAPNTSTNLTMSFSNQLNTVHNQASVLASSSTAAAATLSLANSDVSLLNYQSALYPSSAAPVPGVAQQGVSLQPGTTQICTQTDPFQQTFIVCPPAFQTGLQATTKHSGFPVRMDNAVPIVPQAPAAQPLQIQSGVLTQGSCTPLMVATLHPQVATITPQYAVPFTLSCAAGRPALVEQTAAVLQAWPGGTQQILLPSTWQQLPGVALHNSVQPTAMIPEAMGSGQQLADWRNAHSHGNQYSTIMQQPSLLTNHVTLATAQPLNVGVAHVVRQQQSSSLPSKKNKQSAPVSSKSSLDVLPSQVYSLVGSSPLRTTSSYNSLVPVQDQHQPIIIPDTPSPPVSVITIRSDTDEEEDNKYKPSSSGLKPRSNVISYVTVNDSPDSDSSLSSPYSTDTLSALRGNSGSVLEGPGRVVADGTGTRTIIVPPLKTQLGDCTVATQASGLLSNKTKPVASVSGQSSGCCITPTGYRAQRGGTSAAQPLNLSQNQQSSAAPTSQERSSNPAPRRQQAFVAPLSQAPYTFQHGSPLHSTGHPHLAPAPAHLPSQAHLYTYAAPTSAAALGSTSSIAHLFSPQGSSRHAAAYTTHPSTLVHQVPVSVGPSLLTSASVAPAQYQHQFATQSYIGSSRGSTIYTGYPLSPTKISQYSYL

In the case of `CNc1ncc2cc(-c3ccc(-c4cccc(C)n4)cc3Cl)c(=O)n(C[C@H]3OC[C@H](N)CO3)c2n1` [compound 6, G-5555], the “Percent Control” value [1] was 100%, the “Percent Control” value [2] was 100% and the “Percent Control” value ([3]; Kin.Dom.1 N-terminal) was 95%. The “Percent Control” value ([3]; Kin.Dom.2 C-terminal, 1 µM) was 92%, the “Percent Control” value [4] was 100% and the “Percent Control” value [5] was 100%. For the same compound, the “Percent Control” value [6] was 100%, the “Percent Control” value [7] was 4.5% and the “Percent Control” value [8] was 86%. For the same compound, the “Percent Control” value [9] was 88%, the “Percent Control” value [10] was 100% and the “Percent Control” value [11] was 100%. The “Percent Control” value [12] was 100%, the “Percent Control” value [13] was 100% and the “Percent Control” value [14] was 95%. The “Percent Control” value [15] was 92%, the “Percent Control” value [16] was 100% and the “Percent Control” value [17] was 100%. The “Percent Control” value [18] was 71%, the “Percent Control” value [19] was 100% and the “Percent Control” value [20] was 96%. The “Percent Control” value [21] was 20%, the “Percent Control” value [22] was 84% and the “Percent Control” value [23] was 100%. The “Percent Control” value [24] was 93%, the “Percent Control” value [25] was 98% and the “Percent Control” value [26] was 100%. The “Percent Control” value [27] was 90%, the “Percent Control” value [28] was 94% and the “Percent Control” value [29] was 9.6%. The “Percent Control” value [30] was 100%.
